Data from patent US20240335544A1, “M6PR CELL SURFACE RECEPTOR BINDING COMPOUNDS AND CONJUGATES” (LYCIA THERAPEUTICS, INC., priority 2021, published 2024).
pEC50, pIC50: −log10 of the molar value. “Also recorded” adds a separate entry of the source. Where two headings read alike, the source gives them in different places. One block for each compound: values may come before it.

Legend:
[1] = molecular target: CI-M6PR (Homo sapiens, UniProt P11717); test: Human CI-M6PR binding assay (ELISA); design: purchased R&D 6418-GR-050
Protocol: Nunc black solid bottom MaxiSorp plates were allowed to incubate overnight at 4° C. coated with 1 μg/mL of recombinant human CI-M6PR protein (R&D, 6418-GR-050) in 50 μL PBS. The next day, coating was decanted and plates were washed 3× with PBS. Wells were blocked with 350 μL of 3% BSA-PBS for 1 hour at room temperature. […] 50 μL of diluted conjugates were added to the plate and allowed to incubate at room temperature for 2 hours. After incubation, solutions in plate were decanted and washed with 350 μL of 0.05% PBS-Tween20 three times, drying the plate each wash on a clean paper towel. 50 μL of peroxidase AffiniPure Mouse Anti-Human IgG (Jackson Immuno, 209-035-088) diluted in 3% BSA-PBS to […] was added to the plate and allowed to incubate for 1 hour at room temperature in the dark. After incubation, solutions in plate were decanted and washed with 350 μL of 0.05% PBS-Tween20 3 times, drying the plate each wash on a clean paper towel. […] 50 μL of QuantaBlu solution was added to wells and allowed to incubate for 5-10 minutes at room temperature. After incubation, plates were read on a Perkin Elmer EnVision using photometric 340 and Umbelliferone 460 filter sets for excitation and emission, respectively. Data analysis and non-linear curve-fitting was performed using GraphPad Prism.

[2] = system: Jurkat cells; test: Uptake of IgE-Alexa488 target by omalizumab conjugates in Jurkat cells; type: cell-based; conditions: for relative cellular uptake activity of IgE-Alexa488, omalizumab conjugates of Table 15A / relative cellular uptake activity of IgE-Alexa488, omalizumab conjugates of Table 15B: 1 hour; for relative cellular uptake activity of IgE-Alexa488, omalizumab conjugates of Table 15A: FIGS. 15-17; for relative cellular uptake activity of IgE-Alexa488, omalizumab conjugates of Table 15B: FIGS. 18-21
Protocol: The omalizumab conjugates of Example 142 were bound to IgE-Alexa488 (prepared according to Example 144), as follows: equal molar ratios of omalizumab (anti-IgE) conjugate and IgE-Alexa488 were added in tissue culture media for 30 minutes at room temperature. The resulting anti-IgE conjugate:IgE antibody-Alexa488 compositions were added to Jurkat cells (100 k cells/50 ul per well, n=2), and Alexa488 fluorescence levels in the cells were measured at 1 hour by flow cytometry. As the fluorescently labelled target (IgE antibody) accumulates in cells, the fluorescence presents a way to measure total intracellular uptake by cells over time.

[3] = molecular target: T1, M6PR (Domains I-9, R&D Systems) (Homo sapiens, UniProt P11717); test: General M6PR binding assay (fluorescence polarization); conditions: Table 16F, unconjugated compounds, 100 nM M6PR, 1 nM probe, 2 hr incubation
T1 construct: with 100 nM M6PR (Domains I-9, R&D Systems) and 1 nM probe; purchased R&D Systems
Protocol: M6PR binding was measured in black 96-well plates using a fluorescence polarization assay. A fluorescent probe consisting of a reference M6Pn ligand linked to Cy5 was synthesized. Test compounds were resuspended in DMSO and 3-fold serial dilutions were made at 100× final concentrations. Binding reactions were conducted in 100 μl final volume in 20 mM HEPES (pH 7.5) 100 mM NaCl 0.015% Tween-20 1% DMSO with 100 nM M6PR (Domains I-9, R&D Systems) and 1 nM probe. Fluorescence polarization was measured using Xex=620 nm, λem=688 nm on an Envision plate reader (Perkin Elmer) after 2 hr incubation time. Dose responses were conducted in duplicate and normalized to the response with DMSO (high) and 1 μM reference compound (low) on each plate. IC50 values were determined by fitting to 4-parameter curves in GraphPad Prism.

[4] = Table 16D, conjugate, m average loading DAR 2, read-out: EC50 in M6PR binding assay for conjugates of compounds of varying multivalency

Chain of CI-M6PR (P11717 41-1365 limits assumed): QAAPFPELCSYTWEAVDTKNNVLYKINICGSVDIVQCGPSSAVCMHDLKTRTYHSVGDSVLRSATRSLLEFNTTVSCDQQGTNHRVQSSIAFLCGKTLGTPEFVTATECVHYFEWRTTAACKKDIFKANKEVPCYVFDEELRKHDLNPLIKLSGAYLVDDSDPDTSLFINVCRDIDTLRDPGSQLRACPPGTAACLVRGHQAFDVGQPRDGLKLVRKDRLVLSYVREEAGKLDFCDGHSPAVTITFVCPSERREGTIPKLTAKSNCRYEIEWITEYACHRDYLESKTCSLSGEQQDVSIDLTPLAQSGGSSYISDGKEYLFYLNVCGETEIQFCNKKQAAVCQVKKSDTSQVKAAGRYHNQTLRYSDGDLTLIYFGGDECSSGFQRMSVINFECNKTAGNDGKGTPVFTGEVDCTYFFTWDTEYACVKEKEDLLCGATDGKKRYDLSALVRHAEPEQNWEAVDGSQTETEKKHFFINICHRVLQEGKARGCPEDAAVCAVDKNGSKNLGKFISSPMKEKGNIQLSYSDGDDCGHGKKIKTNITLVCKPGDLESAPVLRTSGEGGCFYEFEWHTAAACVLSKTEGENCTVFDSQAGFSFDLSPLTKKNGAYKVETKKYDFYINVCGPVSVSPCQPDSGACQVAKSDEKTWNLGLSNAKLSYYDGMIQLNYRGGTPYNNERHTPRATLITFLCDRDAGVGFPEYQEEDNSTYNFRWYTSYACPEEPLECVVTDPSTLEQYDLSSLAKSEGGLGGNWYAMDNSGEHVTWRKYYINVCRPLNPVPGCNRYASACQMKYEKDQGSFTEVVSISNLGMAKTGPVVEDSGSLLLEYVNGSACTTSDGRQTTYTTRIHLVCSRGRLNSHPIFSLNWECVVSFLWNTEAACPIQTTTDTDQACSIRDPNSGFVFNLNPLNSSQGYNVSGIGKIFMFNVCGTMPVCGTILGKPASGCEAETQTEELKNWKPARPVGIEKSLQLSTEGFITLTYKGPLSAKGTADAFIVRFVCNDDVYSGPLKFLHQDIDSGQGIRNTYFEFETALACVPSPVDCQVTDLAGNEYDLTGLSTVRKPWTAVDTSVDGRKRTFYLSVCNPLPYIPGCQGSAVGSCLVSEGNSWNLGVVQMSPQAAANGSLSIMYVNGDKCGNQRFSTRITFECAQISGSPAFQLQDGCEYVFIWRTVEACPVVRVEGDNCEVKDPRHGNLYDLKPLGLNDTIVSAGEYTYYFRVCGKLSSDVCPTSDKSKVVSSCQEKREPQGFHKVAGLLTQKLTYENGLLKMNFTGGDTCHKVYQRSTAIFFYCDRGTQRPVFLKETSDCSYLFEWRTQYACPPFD
T1 sequence (P11717 41-1365 limits assumed): as above

Compound: Cc1cc(NC(=O)NCCCCc2cn(CCOCCOCCOCCOCCC(=O)Oc3c(F)c(F)c(F)c(F)c3F)nn2)ccc1O[C@H]1O[C@H](CCP(=O)(O)O)[C@@H](O)[C@H](O)[C@@H]1O [545 (I-87)]
pEC50 ([1]; Table 16C, cetuximab (anti-EGFR) conjugate, average loading DAR 9.2, read-out: EC50 in M6PR binding assay): 9.52

Compound: O=C(CCOCCOCCOCCOCCn1cc(CCCCNC(=S)Nc2ccc(O[C@H]3O[C@H](CCS(=O)(=O)O)[C@@H](O)[C@H](O)[C@@H]3O)cc2)nn1)Oc1c(F)c(F)c(F)c(F)c1F [556 (1-104)]
relative cellular uptake activity of IgE-Alexa488, omalizumab conjugates of Table 15A [2]: low activity

Compound: O=C(CCOCCOCCOCCN(CCOCCOCCOCCn1cc(CCCCNC(=S)Nc2ccc(O[C@H]3O[C@H](CCP(=O)(O)O)[C@@H](O)[C@H](O)[C@@H]3O)cc2)nn1)CCOCCOCCOCCn1cc(CCCCNC(=S)Nc2ccc(O[C@H]3O[C@H](CCP(=O)(O)O)[C@@H](O)[C@H](O)[C@@H]3O)cc2)nn1)Oc1c(F)c(F)c(F)c(F)c1F [704 (I-40)]
pEC50 [1, 4]: 9.18
pEC50 ([1]; Table 16D, conjugate, m average loading DAR 7, read-out: EC50 in M6PR binding assay for conjugates of compounds of varying multivalency): 9.70

Compound: O=C(CCCn1cc(CCCCNC(=S)Nc2ccc(O[C@H]3O[C@H](CCP(=O)(O)O)[C@@H](O)[C@H](O)[C@@H]3O)cc2)nn1)N[C@@H](CCCCn1cc(CCCCNC(=S)Nc2ccc(O[C@H]3O[C@H](CCP(=O)(O)O)[C@@H](O)[C@H](O)[C@@H]3O)cc2)nn1)C(=O)N[C@@H](CCCCn1cc(CCCCNC(=S)Nc2ccc(O[C@H]3O[C@H](CCP(=O)(O)O)[C@@H](O)[C@H](O)[C@@H]3O)cc2)nn1)C(=O)N[C@@H](CCCCn1cc(CCCCNC(=S)Nc2ccc(O[C@H]3O[C@H](CCP(=O)(O)O)[C@@H](O)[C@H](O)[C@@H]3O)cc2)nn1)C(=O)NCCOCCOCCOCCOCCC(=O)Oc1c(F)c(F)c(F)c(F)c1F [763 (I-52)]
pEC50 [1, 4]: 9.52

pIC50 [3]: 6.30 to 7.00
Compound: C#CCCCCNC(=O)Nc1ccc(O[C@H]2O[C@H](CCP(=O)(O)O)[C@@H](O)[C@H](O)[C@@H]2O)cc1 [Compound 38C]

Compound: O=C(NCCCCc1cn(CCOCCOCCOCCOCCC(=O)Oc2c(F)c(F)c(F)c(F)c2F)nn1)Nc1ccc(S[C@H]2O[C@H](CCP(=O)(O)O)[C@@H](O)[C@H](O)[C@@H]2O)cc1 [Compound 552]
relative cellular uptake activity of IgE-Alexa488, omalizumab conjugates of Table 15B [2]: comparable activity to an 0-glycoside (520 (I-7) with m=8); also recorded: more activity when at m=6 loading versus m=4 loading
relative cellular uptake activity of IgE-Alexa488, omalizumab conjugates of Table 19 ([2]; FIG. 23, entire dose response range): comparable by less activity that the conjugate of α-O-glycoside (529)

Compound: O=C(NCCCCc1cn(CCOCCOCCOCCOCCC(=O)Oc2c(F)c(F)cc(F)c2F)nn1)Nc1ccc(O[C@H]2O[C@H](CCP(=O)(O)O)[C@@H](O)[C@H](O)[C@@H]2O)cc1 [Compound 558]
relative cellular uptake activity of IgE-Alexa488, omalizumab conjugates of Table 15A [2]: active in this assay, although less active in comparison to the corresponding analog containing a phosphonate hydrophilic head group (529 (I-38))

Compound: O=C(CCOCCOCCOCCOCCn1cc(CCCCNC(=S)Nc2ccc(O[C@H]3O[C@H](CC(C(=O)O)C(=O)O)[C@@H](O)[C@H](O)[C@@H]3O)cc2)nn1)Oc1c(F)c(F)c(F)c(F)c1F [Compound 559]
pEC50 ([1]; Table 16E, conjugate, m average DAR 9, read-out: EC50 in M6PR binding assay for conjugates of monovalent compounds of varying linker length and loading): 8.47

Compound: CO[C@H]1O[C@H](COCCCCCc2cn(CCOCCOCCOCCOCCC(=O)Oc3c(F)c(F)c(F)c(F)c3F)nn2)[C@@H](O)[C@H](O)[C@@H]1O[C@H]1O[C@H](CCP(=O)(O)O)[C@@H](O)[C@H](O)[C@@H]1O [Compound 659]
relative cellular uptake activity of IgE-Alexa488, omalizumab conjugates of Table 15B [2]: potent and comparable activity to conjugate of a conjugate of compound 520 (I-7)

Compound: CO[C@H]1OC(c2cn(CCOCCOCCOCCOCCOCCOCCC(=O)Oc3c(F)c(F)c(F)c(F)c3F)nn2)[C@@H](O)[C@H](O)[C@@H]1O[C@H]1O[C@H](CCP(=O)(O)O)[C@@H](O)[C@H](O)[C@@H]1O (stereo partly drawn) [Compound 660]
relative cellular uptake activity of IgE-Alexa488, omalizumab conjugates of Table 15B [2]: potent and comparable activity to conjugate of a conjugate of compound 520 (I-7)

Compound: O=C(CCOCCOCCOCCOCCOCCOCCOCCOCc1cn([C@H]2O[C@H](CCP(=O)(O)O)[C@@H](O)[C@H](O)[C@@H]2O)nn1)ON1C(=O)CCC1=O [Compound 664]
relative cellular uptake activity of IgE-Alexa488, omalizumab conjugates of Table 15B [2]: minimal activity

Compound: O=C(NCCCCc1cn(CCOCCOCCOCCOCCC(=O)Oc2c(F)c(F)c(F)c(F)c2F)nn1)Nc1ccc(O[C@H]2C[C@H](CCP(=O)(O)O)[C@@H](O)[C@H](O)[C@@H]2O)cc1 [Compound 665]
relative cellular uptake activity of IgE-Alexa488, omalizumab conjugates of Table 15A [2]: low activity

Compound: O=C(CCOCCOCCOCCN(CCOCCOCCOCCn1cc(CCO[C@H]2O[C@H](CCP(=O)(O)O)[C@@H](O)[C@H](O)[C@@H]2O)nn1)CCOCCOCCOCCn1cc(CCO[C@H]2O[C@H](CCP(=O)(O)O)[C@@H](O)[C@H](O)[C@@H]2O)nn1)Oc1c(F)c(F)c(F)c(F)c1F [Compound 716]
relative cellular uptake activity of IgE-Alexa488, omalizumab conjugates of Table 15A [2]: inferior uptake to 520 (I-7) with m=8

Compound: CC(=O)N[C@@H](CCCCn1cc(CCCCNC(=O)Nc2ccc(O[C@H]3O[C@H](CCP(=O)(O)O)[C@@H](O)[C@H](O)[C@@H]3O)cc2)nn1)C(=O)N[C@@H](CCCCn1cc(CCCCNC(=O)Nc2ccc(O[C@H]3O[C@H](CCP(=O)(O)O)[C@@H](O)[C@H](O)[C@@H]3O)cc2)nn1)C(=O)NCCOCCOCCOCCOCCC(=O)O [Compound 769]
pIC50 [3]: 6.30 to 7.00

pIC50 [3]: ≥ 7.30
Compound: CC(=O)N[C@@H](CCCCn1cc(CCCCNC(=O)Nc2ccc(O[C@H]3O[C@H](CCP(=O)(O)O)[C@@H](O)[C@H](O)[C@@H]3O)cc2)nn1)C(=O)N[C@@H](CCCCn1cc(CCCCNC(=O)Nc2ccc(O[C@H]3O[C@H](CCP(=O)(O)O)[C@@H](O)[C@H](O)[C@@H]3O)cc2)nn1)C(=O)NCCOCCOCCOCCOCCC(=O)N[C@@H](CCCCn1cc(CCCCNC(=O)Nc2ccc(O[C@H]3O[C@H](CCP(=O)(O)O)[C@@H](O)[C@H](O)[C@@H]3O)cc2)nn1)C(=O)N[C@@H](CCCCn1cc(CCCCNC(=O)Nc2ccc(O[C@H]3O[C@H](CCP(=O)(O)O)[C@@H](O)[C@H](O)[C@@H]3O)cc2)nn1)C(=O)NCCOCCOCCOCCOCCC(=O)O [Compound 770]

pIC50 [3]: 6.30 to 7.00
Compound: CC(=O)N[C@@H](CCCCn1cc(CCCCNC(=O)Nc2ccc(O[C@H]3O[C@H](CCP(=O)(O)O)[C@@H](O)[C@H](O)[C@@H]3O)cc2)nn1)C(=O)NCCOCCOCCOCCOCCC(=O)O [Compound 771]

pIC50 [3]: 7.00 to 7.30
Compound: O=C(O)CCOCCOCCOCCOCCNC(=O)[C@H](CCCCn1cc(CCCCNC(=O)Nc2ccc(O[C@H]3O[C@H](CCP(=O)(O)O)[C@@H](O)[C@H](O)[C@@H]3O)cc2)nn1)NC(=O)[C@H](CCCCn1cc(CCCCNC(=O)Nc2ccc(O[C@H]3O[C@H](CCP(=O)(O)O)[C@@H](O)[C@H](O)[C@@H]3O)cc2)nn1)NC(=O)[C@H](CCCCn1cc(CCCCNC(=O)Nc2ccc(O[C@H]3O[C@H](CCP(=O)(O)O)[C@@H](O)[C@H](O)[C@@H]3O)cc2)nn1)NC(=O)CCCn1cc(CCCCNC(=O)Nc2ccc(O[C@H]3O[C@H](CCP(=O)(O)O)[C@@H](O)[C@H](O)[C@@H]3O)cc2)nn1 [Compound 772]

Compound: O=C(CCCn1cc(CCCCNC(=S)Nc2ccc(O[C@H]3O[C@H](CCP(=O)(O)O)[C@@H](O)[C@H](O)[C@@H]3O)cc2)nn1)N[C@@H](CCCCn1cc(CCCCNC(=S)Nc2ccc(O[C@H]3O[C@H](CCP(=O)(O)O)[C@@H](O)[C@H](O)[C@@H]3O)cc2)nn1)C(=O)N[C@@H](CCCCn1cc(CCCCNC(=S)Nc2ccc(O[C@H]3O[C@H](CCP(=O)(O)O)[C@@H](O)[C@H](O)[C@@H]3O)cc2)nn1)C(=O)N[C@@H](CCCCn1cc(CCCCNC(=S)Nc2ccc(O[C@H]3O[C@H](CCP(=O)(O)O)[C@@H](O)[C@H](O)[C@@H]3O)cc2)nn1)C(=O)NCCOCCOCCOCCOCCC(=O)Oc1c(F)c(F)c(F)c(F)c1F [Compound I-52]
pEC50 ([1]; Table 16B, antibody conjugate, average loading DAR 6, read-out: EC50 in M6PR binding assay): 9.55

pIC50 [3]: 6.30 to 7.00
Compound: C#CCCCC(=O)Nc1ccc2cc(O[C@H]3O[C@H](CCP(=O)(O)O)[C@@H](O)[C@H](O)[C@@H]3O)ccc2c1 [Compound I-68, (2-((2R,3S,4S,5S,6R)-6-((6-(hex-5-ynamido)naphthalen-2-yl)oxy)-3,4,5-trihydroxytetrahydro-2H-pyran-2-yl)ethyl)phosphonic acid]
